Our source for the GI50 and TGI values is PubChem BioAssay (NCI).

Test systems include 786-0 renal; DU-145 prostate; HCT-15 colon; K-562 leukemia; MDA-MB-231 breast; NCI-H226 lung; RXF 393 renal; SF-268 CNS; SF-539 CNS; SW-620 colon.
Common to all, as to experiment: NCI anticancer screen, dose series, 48 h

“And” between values parts separate entries of the source, which are not always exact repeats. Equal entries are not always repeated.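 Interpolation was linear, between the two tested concentrations surrounding the appropriate level; five concentrations were tested over 48 hours in 96-well plates. GI50: concentration for 50% inhibition of growth. The concentration for full growth arrest is given as TGI.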

As to `COc1cc2ncnc(Nc3ccc4c(cnn4Cc4ccccc4)c3)c2cc1OC`, the GI50 is 16.7 µM with 786-0 renal; over 25 µM in the experiment with DU-145 prostate; over 17.4 µM in the experiment with HCT-15 colon; 7.27 µM in the experiment with K-562 leukemia; 7.13 µM in the experiment with MDA-MB-231 breast; over 25 µM in the experiment on NCI-H226 lung. Moreover, the GI50 with RXF 393 renal was 8.92 µM; in the experiment on SF-268 CNS it was over 25 µM; in the experiment with SF-539 CNS it was over 15.8 µM; in the experiment on SW-620 colon it was over 25 µM. Further, the TGI is over 25 µM in the experiment on 786-0 renal; over 25 µM in the experiment with DU-145 prostate; over 25 µM with HCT-15 colon; over 19.7 µM in the experiment with K-562 leukemia; over 25 µM in the experiment on MDA-MB-231 breast; over 25 µM in the experiment with NCI-H226 lung. The TGI with RXF 393 renal, with SF-268 CNS, with SF-539 CNS and in the experiment on SW-620 colon was over 25 µM in each case.

Consider `CCOC(=O)c1oc2ccc([N+](=O)[O-])c3c2c1CCC3`, for which the TGI with 786-0 renal is 84.9 µM; in the experiment with DU-145 prostate, over 100 µM; in the experiment on HCT-15 colon, over 100 µM; with K-562 leukemia, over 100 µM; with MDA-MB-231 breast, over 100 µM; with NCI-H226 lung, over 100 µM. Also, the TGI in the experiment on RXF 393 renal is 59.6 µM; in the experiment on SF-268 CNS it was 72.2 µM; in the experiment on SF-539 CNS, 39.7 µM; with SW-620 colon, over 100 µM.

With `Cc1ccc(C2=C(c3ccccc3)C(c3ccccc3)Oc3ccc(C)cc32)cc1` (stereo not drawn), the GI50 in the experiment with 786-0 renal is 2.17 µM; in the experiment with DU-145 prostate it was 3.56 µM; with HCT-15 colon it was 16.9 µM; with K-562 leukemia it was 8.29 µM; with MDA-MB-231 breast it was 13 µM; in the experiment on NCI-H226 lung it was 15.8 µM. Also, the GI50 with RXF 393 renal was 3.37 µM; in the experiment with SF-268 CNS, 13.2 µM; in the experiment with SF-539 CNS it was 6.29 µM; with SW-620 colon it was 3.79 µM. Moreover, the TGI is 4.74 µM in the experiment on 786-0 renal; 12.5 µM in the experiment with DU-145 prostate; 35.8 µM in the experiment on HCT-15 colon; 42.7 µM with K-562 leukemia; 30.5 µM with MDA-MB-231 breast; 37.9 µM in the experiment with NCI-H226 lung. Further, the TGI was determined as 13.3 µM with RXF 393 renal, 38.7 µM with SF-268 CNS, 20 µM in the experiment with SF-539 CNS and 13.2 µM in the experiment on SW-620 colon.

As for `Cc1ccc(C2=Nc3c(N)ncnc3NC(c3ccc4c(c3)OCO4)C2)cc1` (stereo not drawn), the GI50 is over 100 µM with 786-0 renal; 4.52 µM in the experiment with DU-145 prostate; 3.14 µM with HCT-15 colon; 4.19 µM in the experiment with K-562 leukemia; 4.37 µM in the experiment on MDA-MB-231 breast; 12.6 µM in the experiment with NCI-H226 lung. Moreover, the GI50 in the experiment on RXF 393 renal was 3.5 µM; in the experiment on SF-268 CNS, 4.06 µM; with SF-539 CNS it was 4.98 µM; in the experiment on SW-620 colon, 3.56 µM. The TGI was over 100 µM in the experiment on 786-0 renal; 14.7 µM with DU-145 prostate; 13.7 µM in the experiment on HCT-15 colon; over 100 µM in the experiment on K-562 leukemia; 19.5 µM in the experiment on MDA-MB-231 breast; 47.9 µM in the experiment on NCI-H226 lung. Moreover, the TGI in the experiment with RXF 393 renal is 23.1 µM; in the experiment on SF-268 CNS it was 16.3 µM; in the experiment with SF-539 CNS, 21.7 µM; with SW-620 colon, 16.8 µM.

As for `Oc1ccc(CCNCc2cc3c(cc2Br)OCO3)cc1`, the TGI with 786-0 renal, in the experiment with DU-145 prostate, with HCT-15 colon, with K-562 leukemia, in the experiment with MDA-MB-231 breast and in the experiment on NCI-H226 lung was over 100 µM in each case. Besides, the TGI in the experiment with RXF 393 renal, with SF-268 CNS, in the experiment with SF-539 CNS and with SW-620 colon was over 100 µM each time.

Consider `O=S1(=O)CS(=O)(=O)OCCO1`, for which the GI50 with 786-0 renal is 35.6 µM; in the experiment with HCT-15 colon, over 85.6 µM; with NCI-H226 lung, over 93.7 µM; with RXF 393 renal, over 94.8 µM; in the experiment on SF-268 CNS it was 85.6 µM; in the experiment on SF-539 CNS, 30.4 µM. The TGI in the experiment on 786-0 renal came to 159 µM; in the experiment on DU-145 prostate, 178 µM; with HCT-15 colon, 128 µM; in the experiment with K-562 leukemia, 423 µM; with MDA-MB-231 breast, 352 µM; in the experiment with NCI-H226 lung, 172 µM. Also, the TGI in the experiment on RXF 393 renal is 118 µM; with SF-268 CNS it was 249 µM; in the experiment on SF-539 CNS, > 78.2 µM and 63.5 µM; in the experiment on SW-620 colon, 321 µM.

As for `CCC(=O)Nc1ccccc1C#C/C=C\C#Cc1ccccc1C(F)(F)F`, the GI50 in the experiment with 786-0 renal was 2.37 µM; in the experiment with DU-145 prostate, 2.28 µM; in the experiment on HCT-15 colon, 3.9 µM; in the experiment on K-562 leukemia, 2.29 µM; in the experiment with MDA-MB-231 breast, 3.13 µM; in the experiment with NCI-H226 lung it was 6.91 µM. The GI50 in the experiment with RXF 393 renal is 2.84 µM; with SF-268 CNS, 3.21 µM; in the experiment on SF-539 CNS, 4.2 µM; with SW-620 colon, 1.73 µM. In addition, the TGI was 23.2 µM in the experiment with 786-0 renal; 22.3 µM with DU-145 prostate; over 50 µM with HCT-15 colon; over 50 µM in the experiment on K-562 leukemia; over 29.3 µM in the experiment on MDA-MB-231 breast; over 50 µM with NCI-H226 lung. For the same molecule, the TGI in the experiment with RXF 393 renal is over 12.7 µM; in the experiment with SF-268 CNS, 35.3 µM; with SF-539 CNS, 13.1 µM; in the experiment with SW-620 colon it was over 24.4 µM.

`C/C=C/[C@H]1O[C@@H]2C(=C[C@H]1O)C(=O)O[C@H]2C`: the GI50 is 13.8 µM in the experiment with 786-0 renal; 5.76 µM in the experiment on DU-145 prostate; 15.7 µM with HCT-15 colon; 7.55 µM with K-562 leukemia; 17.3 µM in the experiment on MDA-MB-231 breast; 18.4 µM with NCI-H226 lung. The GI50 is 18.9 µM in the experiment on RXF 393 renal, 30.1 µM with SF-268 CNS and 3.19 µM with SW-620 colon. Moreover, the TGI in the experiment on 786-0 renal was 28.7 µM; in the experiment with DU-145 prostate it was 21.4 µM; in the experiment with HCT-15 colon it was 34.7 µM; in the experiment on K-562 leukemia, over 33.8 µM; in the experiment with MDA-MB-231 breast, 34.2 µM; in the experiment with NCI-H226 lung it was 48.1 µM. The TGI is 67.7 µM in the experiment on RXF 393 renal, over 95 µM in the experiment on SF-268 CNS, 3.38 µM with SF-539 CNS and 14.2 µM in the experiment with SW-620 colon.

On to `COCCN1CCN(Cc2ccc(-c3n[nH]c4c3C(=O)c3c(NC(=O)NN5CCOCC5)cccc3-4)cc2)CC1`, for which the GI50 was 0.0336 µM in the experiment on 786-0 renal; 0.0267 µM in the experiment with DU-145 prostate; 0.117 µM with HCT-15 colon; 0.032 µM with K-562 leukemia; 0.0194 µM in the experiment on MDA-MB-231 breast; 0.0329 µM in the experiment on NCI-H226 lung. Moreover, the GI50 was 0.0189 µM in the experiment with RXF 393 renal, 0.0318 µM in the experiment on SF-268 CNS, 0.029 µM in the experiment on SF-539 CNS and 0.0242 µM in the experiment with SW-620 colon. In addition, the TGI in the experiment on 786-0 renal was over 10 µM; in the experiment on HCT-15 colon, 2 µM; with K-562 leukemia, over 10 µM; with MDA-MB-231 breast it was 0.584 µM; in the experiment on NCI-H226 lung it was over 2.46 µM; with RXF 393 renal, 0.0458 µM. The TGI in the experiment on SF-539 CNS is 0.086 µM; with SW-620 colon it was over 6.22 µM.

Take `Cc1[nH]nc2c1N=C(c1ccccc1F)c1cc(C(N)=O)ccc1N2`: the GI50 in the experiment on 786-0 renal is 2.82 µM; in the experiment with DU-145 prostate, 6.71 µM; in the experiment on HCT-15 colon it was 4.69 µM; in the experiment with K-562 leukemia it was 1.72 µM; with MDA-MB-231 breast it was 6.8 µM; in the experiment with NCI-H226 lung it was 0.852 µM. Moreover, the GI50 with RXF 393 renal is 0.975 µM; in the experiment on SF-268 CNS it was 2.22 µM; with SF-539 CNS, 0.621 µM; in the experiment on SW-620 colon, 2.34 µM. The TGI is over 25 µM in the experiment on 786-0 renal; over 25 µM in the experiment on DU-145 prostate; over 25 µM in the experiment on HCT-15 colon; over 25 µM with K-562 leukemia; over 25 µM with MDA-MB-231 breast; 6.38 µM with NCI-H226 lung. The TGI in the experiment on RXF 393 renal is 6.15 µM; in the experiment on SF-268 CNS it was 8.46 µM; in the experiment with SF-539 CNS, 3.54 µM; in the experiment with SW-620 colon, over 25 µM.

As to `Cn1c2ccccc2c2c3[nH][nH]c(=O)c3c3c4ccccc4[nH]c3c21`, the GI50 in the experiment with 786-0 renal was 3.06 µM; in the experiment on DU-145 prostate, 2.45 µM; in the experiment on HCT-15 colon, 2.47 µM; in the experiment on K-562 leukemia, 3.3 µM; in the experiment on MDA-MB-231 breast it was 1.39 µM; in the experiment on NCI-H226 lung, 2.34 µM. The GI50 was 1.51 µM in the experiment with RXF 393 renal, 2.62 µM with SF-268 CNS, 1.22 µM in the experiment on SF-539 CNS and 2.4 µM in the experiment on SW-620 colon. The TGI with 786-0 renal was 31.6 µM; in the experiment with DU-145 prostate, 29.1 µM; with HCT-15 colon, 35.7 µM; with K-562 leukemia, 15.9 µM; in the experiment with MDA-MB-231 breast, 46.1 µM; in the experiment on NCI-H226 lung, 22.6 µM. The TGI worked out at 3.57 µM with RXF 393 renal, 14.4 µM with SF-268 CNS, 3.12 µM in the experiment on SF-539 CNS and 14.3 µM with SW-620 colon.

Consider `CC1(C)C(=O)/C=C\C(=O)C(C)(C)C(=O)/C=C\C(=O)C(C)(C)C(=O)/C=C\C(=O)C(C)(C)C(=O)/C=C\C1=O`, for which the TGI in the experiment on 786-0 renal is 49.1 µM; in the experiment on DU-145 prostate, over 100 µM; in the experiment on HCT-15 colon, 61.5 µM; in the experiment on K-562 leukemia, 39.4 µM; with MDA-MB-231 breast, over 100 µM; with NCI-H226 lung it was over 86.5 µM. For the same molecule, the TGI in the experiment with RXF 393 renal was 34.1 µM; in the experiment on SF-268 CNS it was over 69.3 µM; in the experiment with SF-539 CNS, 55.8 µM; in the experiment with SW-620 colon, 28.1 µM.
